Measurements reported in PubChem BioAssay (NCI).
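All cell lines were grown in 96-well plates and treated with compound for 48 hours. TGI denotes the concentration required for complete inhibition of growth.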

Assays:
Experiment in all cases: NCI tumour cell line growth inhibition, 48 h
[1] = tested on: OVCAR-8 ovarian
[2] = tested on: T-47D breast
[3] = tested on: SF-295 CNS
[4] = tested on: A549 NSCLC
[5] = tested on: SN12C renal
[6] = tested on: KM20L2 colon
[7] = tested on: HS 578T breast
[8] = tested on: SK-MEL-5 melanoma
[9] = tested on: KM12 colon
[10] = tested on: EKVX NSCLC
[11] = tested on: LXFL 529 NSCLC
[12] = tested on: HOP-62 NSCLC
[13] = tested on: HL-60(TB) leukemia
[14] = tested on: DMS 114 small cell lung
[15] = tested on: DMS 273 small cell lung
[16] = tested on: M19-MEL melanoma
[17] = tested on: SF-539 CNS
[18] = tested on: MALME-3M melanoma
[19] = tested on: RPMI-8226 leukemia
[20] = tested on: MDA-N
[21] = tested on: MDA-MB-435
[22] = tested on: MDA-MB-231 breast
[23] = tested on: SK-MEL-28 melanoma
[24] = tested on: HCC-2998 colon
[25] = tested on: IGROV1 ovarian
[26] = tested on: UO-31 renal
[27] = tested on: NCI/ADR-RES ovarian
[28] = tested on: COLO 205 colon
[29] = tested on: SNB-19 CNS
[30] = tested on: SK-MEL-2 melanoma
[31] = tested on: DLD-1 colon
[32] = tested on: K-562 leukemia
[33] = tested on: CAKI-1 renal
[34] = tested on: NCI-H460 lung
[35] = tested on: UACC-257 melanoma
[36] = tested on: SNB-75 CNS
[37] = tested on: MCF7 breast
[38] = tested on: OVCAR-4 ovarian
[39] = tested on: SNB-78 CNS
[40] = tested on: BT-549 breast
[41] = tested on: LOX IMVI melanoma
[42] = tested on: M14 melanoma
[43] = tested on: SK-OV-3 ovarian
[44] = tested on: XF 498 CNS
[45] = tested on: 786-0 renal
[46] = tested on: TK-10 renal
[47] = tested on: U251 CNS
[48] = tested on: NCI-H522 lung
[49] = tested on: HCT-15 colon
[50] = tested on: OVCAR-3 ovarian
[51] = tested on: HT29 colon
[52] = tested on: A498 renal
[53] = tested on: HOP-18 NSCLC
[54] = tested on: OVCAR-5 ovarian
[55] = tested on: SF-268 CNS
[56] = tested on: NCI-H23 lung
[57] = tested on: MOLT-4 leukemia
[58] = tested on: RXF 393 renal
[59] = tested on: NCI-H226 lung
[60] = tested on: PC-3 prostate
[61] = tested on: ACHN renal
[62] = tested on: CCRF-CEM leukemia
[63] = tested on: RXF-631 renal
[64] = tested on: HOP-92 NSCLC
[65] = tested on: HCT-116 colon
[66] = tested on: DU-145 prostate
[67] = tested on: UACC-62 melanoma
[68] = tested on: SW-620 colon
[69] = tested on: SR leukemia

`CNC(=O)/C(=C/c1ccc(OC)cc1)c1cc(OC)c(OC)c(OC)c1` was tested, and the TGI [1] was 55.3 µM, the TGI [2] was greater than 100 µM and the TGI [3] was 3.02 µM. The TGI [4] was greater than 100 µM, the TGI [5] was 98.1 µM and the TGI [6] was 2.72 µM. For the same compound, the TGI [7] was 5.71 µM, the TGI [8] was greater than 36.6 µM and the TGI [9] was greater than 83.9 µM. It also gave a TGI [10] greater than 100 µM, a TGI [11] greater than 100 µM and a TGI [12] greater than 100 µM. For the same compound, the TGI [13] was 8.01 µM, the TGI [14] was greater than 21.5 µM and the TGI [15] was greater than 100 µM. For the same compound, the TGI [16] was greater than 100 µM, the TGI [17] was 3.58 µM and the TGI [18] was greater than 54.5 µM. For the same compound, the TGI [19] was greater than 100 µM, the TGI [20] was 0.71 µM and the TGI [21] was 2.42 µM. It also gave a TGI [22] greater than 77.9 µM, a TGI [23] greater than 100 µM and a TGI [24] of 17.7 µM. For the same compound, the TGI [25] was greater than 100 µM, the TGI [26] was greater than 86 µM and the TGI [27] was greater than 100 µM. For the same compound, the TGI [28] was 7.36 µM, the TGI [29] was 54.8 µM and the TGI [30] was greater than 100 µM. It also gave a TGI [31] greater than 100 µM, a TGI [32] greater than 80.9 µM and a TGI [33] greater than 100 µM. For the same compound, the TGI [34] was 47.5 µM, the TGI [35] was greater than 90 µM and the TGI [36] was 4.4 µM. For the same compound, the TGI [37] was greater than 51.4 µM, the TGI [38] was 99.7 µM and the TGI [39] was greater than 100 µM. The TGI [40] was greater than 100 µM, the TGI [41] was greater than 100 µM and the TGI [42] was greater than 34.6 µM. The TGI [43] was 29 µM, the TGI [44] was 65.8 µM and the TGI [45] was greater than 100 µM. The TGI [46] was greater than 100 µM, the TGI [47] was 23.1 µM and the TGI [48] was 4.39 µM. For the same compound, the TGI [49] was greater than 100 µM, the TGI [50] was 2.5 µM and the TGI [51] was 17.5 µM. It also gave a TGI [52] greater than 43.4 µM, a TGI [53] greater than 100 µM and a TGI [54] greater than 93.3 µM. The TGI [55] was greater than 84.7 µM, the TGI [56] was 32.6 µM and the TGI [57] was greater than 100 µM. For the same compound, the TGI [58] was 11.8 µM, the TGI [59] was greater than 53.7 µM and the TGI [60] was greater than 100 µM. It also gave a TGI [61] greater than 100 µM, a TGI [62] greater than 100 µM and a TGI [63] greater than 100 µM. The TGI [64] was greater than 60.2 µM, the TGI [65] was greater than 72.4 µM and the TGI [66] was greater than 43 µM. For the same compound, the TGI [67] was greater than 48.6 µM, the TGI [68] was greater than 100 µM and the TGI [69] was greater than 31.1 µM.
`CCOC(=O)C1=C(c2ccccc2)NC(c2ccccc2)=C(C(=O)OCC)c2c1c(=O)cc[nH]c2=O` showed a TGI [1] greater than 100 µM, a TGI [3] greater than 100 µM and a TGI [4] greater than 100 µM. The TGI [5] was greater than 100 µM, the TGI [6] was greater than 100 µM and the TGI [9] was greater than 100 µM. It also gave a TGI [11] greater than 100 µM, a TGI [12] greater than 100 µM and a TGI [13] greater than 100 µM. It also gave a TGI [15] greater than 100 µM, a TGI [16] greater than 100 µM and a TGI [17] greater than 100 µM. The TGI [18] was greater than 100 µM, the TGI [19] was greater than 100 µM and the TGI [23] was greater than 100 µM. The TGI [24] was greater than 100 µM, the TGI [25] was greater than 100 µM and the TGI [26] was greater than 100 µM. For the same compound, the TGI [28] was greater than 100 µM, the TGI [29] was greater than 100 µM and the TGI [30] was greater than 100 µM. For the same compound, the TGI [31] was greater than 100 µM, the TGI [32] was greater than 100 µM and the TGI [33] was greater than 100 µM. For the same compound, the TGI [34] was greater than 100 µM, the TGI [35] was greater than 100 µM and the TGI [36] was greater than 100 µM. It also gave a TGI [38] greater than 100 µM, a TGI [39] greater than 100 µM and a TGI [41] greater than 100 µM. For the same compound, the TGI [42] was greater than 100 µM, the TGI [43] was greater than 100 µM and the TGI [44] was greater than 100 µM. The TGI [45] was greater than 100 µM, the TGI [46] was greater than 100 µM and the TGI [47] was greater than 100 µM. It also gave a TGI [48] greater than 100 µM, a TGI [49] greater than 100 µM and a TGI [50] greater than 100 µM. It also gave a TGI [51] greater than 100 µM, a TGI [54] greater than 100 µM and a TGI [55] greater than 100 µM. The TGI [56] was greater than 100 µM, the TGI [57] was greater than 100 µM and the TGI [59] was greater than 100 µM. It also gave a TGI [61] greater than 100 µM, a TGI [63] greater than 100 µM and a TGI [64] greater than 100 µM. For the same compound, the TGI [65] was greater than 100 µM, the TGI [67] was greater than 100 µM and the TGI [68] was greater than 100 µM. For the same compound, the TGI [69] was greater than 100 µM.
